“Also recorded” adds a separate entry of the source.
The sequences below were run on biotinylated human D-SDF-1 (assay: Competitive pull-down binding assay). Settings: aptamer level; reference 192-A10-001.
Procedure: In order to compare different D-SDF-1 binding aptamers, a competitive ranking assay was performed. For this purpose the most affine aptamer available was radioactively labeled (see above) and served as reference. […] An excess of de- and renatured non-labeled D-RNA aptamer variants was added to different concentrations (e.g. 2, 10, and 50 nM) with the labeled reference aptamer to parallel binding reactions. The aptamers to be tested competed with the reference aptamer for target binding, thus decreasing the binding signal in dependence of their binding characteristics.

Row | Sequence | binding affinity in competitive pull-down binding assay vs. 192-A10-001
1 | GCAGUGAAAGUAACAUGUCAAUGAAAGGUAACCACAGC (aptamer; Made as D-RNA aptamer and L-RNA Spiegelmer, tested form not given here, further chemistry not given here) [192-D11] | Weaker binding affinity
2 | GCUAUGAAAGUAACAUGUCAAUGAAAGGUAACCAUAGC (aptamer; Made as D-RNA aptamer and L-RNA Spiegelmer, tested form not given here, further chemistry not given here) [192-H11] | Weaker binding affinity
3 | GCUGCGAAAGCGACAUGUCAAUGAAAGGUAGCCGCAGC (aptamer; Made as D-RNA aptamer and L-RNA Spiegelmer, tested form not given here, further chemistry not given here) [192-D10] | much weaker binding affinity
4 | GCUGUAAAAGUAACAAGUCAAUGAAAGGUAACUACAGC (aptamer; Made as D-RNA aptamer and L-RNA Spiegelmer, tested form not given here, further chemistry not given here) [192-E10] | Weaker binding affinity; also recorded: reduced binding affinity
5 | GCUGUAAAAGUAACAUGUCAAUGAAAGGUAACUACAGC (aptamer; Made as D-RNA aptamer and L-RNA Spiegelmer, tested form not given here, further chemistry not given here) [192-C9] | Weaker binding affinity
6 | GCUGUGAAAGCAACAUGUCAAUGAAAGGUAGCCACAGC (aptamer; Made as D-RNA aptamer and L-RNA Spiegelmer, tested form not given here, further chemistry not given here) [192-E9] | much weaker binding affinity
7 | GCUGUGAAAGUAACAAGUCAAUGAAAGGUAACCACAGC (aptamer; Made as D-RNA aptamer and L-RNA Spiegelmer, tested form not given here, further chemistry not given here) [192-C10] | equal binding affinities; also recorded: equal binding affinity
8 | GCUGUGAAAGUAACACGUCAAUGAAAGGUAACCACAGC (aptamer; Made as D-RNA aptamer and L-RNA Spiegelmer, tested form not given here, further chemistry not given here) [192-B11] | equal binding affinities; also recorded: equal binding affinity
9 | GCUGUGAAAGUAACACGUCAAUGAAAGGUAACCGCAGC (aptamer; Made as D-RNA aptamer and L-RNA Spiegelmer, tested form not given here, further chemistry not given here) [192-F10] | Weaker binding affinity; also recorded: reduced binding affinity
10 | GCUGUGAAAGUAACAUGUCAAUGAAAGGUAACCACAGC (aptamer; Made as D-RNA aptamer and L-RNA Spiegelmer, tested form not given here, further chemistry not given here) [192-G10] | Weaker binding affinity
11 | GCUGUGAAAGUAACAUGUCAAUGAAAGGUAACCACUGC (aptamer; Made as D-RNA aptamer and L-RNA Spiegelmer, tested form not given here, further chemistry not given here) [192-G11] | Weaker binding affinity
12 | GCUGUGAAAGUAACAUGUCAAUGAAAGGUAGCCGCAGC (aptamer; Made as D-RNA aptamer and L-RNA Spiegelmer, tested form not given here, further chemistry not given here) [192-H9] | much weaker binding affinity

Same assay, conditions: compared with 190-A3-001

Row | Sequence | binding affinity of derivatives of 190-A3-001
13 | GGGGUUAGGGCUUAAAGUCGGCUGAUUCU (Made as D-RNA aptamer and L-RNA Spiegelmer, tested form not given here, further chemistry not given here) [190-A3-007] | very strong reduction of binding affinity

Same assay, conditions: reference 191-D5-007

Row | Sequence | binding affinity in competitive pull-down binding assay vs. 191-D5-007
14 | GGCCGGGGUUAGGGCUAGAAGUCGGCCGGCC (chemistry not fully specified) [197-B2-006-31a] | the same as shown for 191-D5-007 and 197-B2-006
15 | GGCGGGUUAGGGCUAGAAGUCGGCGCC (chemistry not fully specified) [191-D5-024] | reduced binding affinity
16 | GGGCGGGUUAGGGCUAGAAGUCGGCGCCC (chemistry not fully specified) [191-D5-024-29b] | identical binding affinity to SDF-1 as 191-D5-007

Same assay, conditions: reference 193-G2-001

Row | Sequence | binding to human SDF-1 in comparison to 193-G2-001
17 | GCAUGGUGUGAUCUAGAUGUAGUGGCUGAUCCUAGUCAGGUGCCC (chemistry not fully specified) [193-A1-002] | reduced binding; also recorded: weaker binding affinities
18 | GCGAGGUGUGAUCUAGAUGUAGUGGCUGAUCCUAGUCAGGUGCGC (chemistry not fully specified) [193-G1-002] | reduced binding; also recorded: weaker binding affinities
19 | GCGUGGUGUGAUCUAGAUGUAAAGGCUGAUCCUAGUCAGGUACGC (chemistry not fully specified) [193-H3-002] | reduced binding
20 | GCGUGGUGUGAUCUAGAUGUAAUGGCUGAUCCUAGUCAGGGACGC (chemistry not fully specified) [193-D3-002] | reduced binding; also recorded: weaker binding affinities
21 | GCGUGGUGUGAUCUAGAUGUAGAGGCUGAUCCUAGUCAGGUACGC (chemistry not fully specified) [193-B3-002] | reduced binding
22 | GCGUGGUGUGAUCUAGAUGUAGUGGCUGAUCCUAGUCAGGUGCGC (chemistry not fully specified) [193-D2-002] | reduced binding; also recorded: weaker binding affinities
23 | GCGUGGUGUGAUCUAGAUGUAGUGGCUGAUCCUAGUUAGGUACGC (chemistry not fully specified) [193-D1-002] | reduced binding

Same assay, conditions: vs. 192-A10-001 and 192-A10-008

Row | Sequence | binding affinity of derivatives of 192-A10-001 in competitive pull-down binding assay
24 | GCCCAAAGCAACAUGUCAAUGAAAGGUAGCGGGC (aptamer; chemistry not given here) [192-A10-022] | weaker, much weaker or very much weaker binding affinity
25 | GCGCAAAGCAACAUGUCAAUGAAAGGUAGCGUGC (aptamer; chemistry not given here) [192-A10-017] | weaker, much weaker or very much weaker binding affinity
26 | GCGCGAAAGCAACAUGUCAAUGAAAGGUAGCCGCGC (aptamer; Made as D-RNA aptamer and L-RNA Spiegelmer, tested form not given here, further chemistry not given here) [192-A10-015] | reduced binding affinity; also recorded: weaker, much weaker or very much weaker binding affinity
27 | GCGGAAAGCAACAUGUCAAUGAAAGGUAGCCCGC (aptamer; chemistry not given here) [192-A10-014] | weaker, much weaker or very much weaker binding affinity
28 | GGCCAAAGCAACAUGUCAAUGAAAGGUAGCGGCC (aptamer; chemistry not given here) [192-A10-021] | weaker, much weaker or very much weaker binding affinity
29 | GGGCAAAGCAACAUGUCAAUGAAAGGUAGCGCCC (aptamer; chemistry not given here) [192-A10-020] | weaker, much weaker or very much weaker binding affinity
30 | GUGAAAGCAACAUGUCAAUGAAAGGUAGCCGC (chemistry not given here) [192-A10-004] | reduced binding affinity

Same assay, conditions: vs. 193-G2-001 and 193-G2-012

Row | Sequence | binding affinity of derivatives of 193-G2-001 and 193-C2-001 in competitive pull-down binding assay
31 | GCCCGUGUGAUCUAGAUGUAUUGGCUGAUCCUAGUCAGGGGGC (chemistry not fully specified) [193-G2-017] | reduced binding affinity
32 | GCGCGGUGUGAUCUAGAUGUAUUGGCUGAUCCUAGUCAGGCGCGC (chemistry not fully specified) [193-G2-013] | reduced binding affinity
33 | GCGCGUGUGAUCUAGAUGUAUUGGCUGAUCCUAGUCAGGGCGC (chemistry not fully specified) [193-G2-014] | reduced binding affinity
34 | GGCCGUGUGAUCUAGAUGUAUUGGCUGAUCCUAGUCAGGGGCC (chemistry not fully specified) [193-G2-016] | reduced binding affinity
35 | GGGCGUGUGAUCUAGAUGUAUUGGCUGAUCCUAGUCAGGGCCC (chemistry not fully specified) [193-G2-015] | reduced binding affinity
36 | GGUGUGAUCUAGAUGUAGUGGCUGAUCCUAGUCAGGU (Listed both as L-RNA Spiegelmer and D-RNA aptamer, further chemistry not given here) [193-C2-006] | reduced binding affinity

Same assay, conditions: vs. 197-B2 and 191-D5-007

Row | Sequence | binding affinity of truncated derivatives of 197-B2
37 | GCGGGGGUUAGGGCUAGAAGUCGGCCUGC (chemistry not fully specified) [197-B2-005] | without loss of binding affinity

From US9387221B2, “SDF-1 binding nucleic acids and the use thereof in cancer treatment” (NOXXON Pharma AG, priority 2010, dated 2016)
